Assay results taken from patent US20150038739A1, “METHOD FOR MANUFACTURING REFINED METHIONINE” (SUMITOMO CHEMICAL COMPANY, LIMITED, priority 2012, published 2015).

CSCC[C@H](N)C(=O)O [methionine]
solubility of methionine in pure water (saturated solubility) (pure water, normal temperature and normal pressure): about 3.0 % by weight
saturated solubility of methionine in alkaline recovered wash water (under 2.0% by weight of concentration of potassium): about 5.0 % by weight
